Experimental data from patent US8563714B2, “Bridged spiro [2.4] heptane derivatives as ALX receptor and/or FPRL2 agonists” (Actelion Pharmaceuticals Ltd., priority 2009, dated 2013).

Columns and labels:
[1] = target: T1, human FPRL2 (Homo sapiens, UniProt P25089); experiment: Intracellular calcium measurements (FLIPR), agonistic activity in HEK293-hFPRL2-Gα16 cells; format: cell-based; settings: Fluo-4 calcium FLIPR, normalized to GLY14-Humanin 100 nM
T1 construct: expressed in transfected cells; host or cells: HEK293 (HEK293-hFPRL2-Gα16)
T1 sequence (P25089 1-353): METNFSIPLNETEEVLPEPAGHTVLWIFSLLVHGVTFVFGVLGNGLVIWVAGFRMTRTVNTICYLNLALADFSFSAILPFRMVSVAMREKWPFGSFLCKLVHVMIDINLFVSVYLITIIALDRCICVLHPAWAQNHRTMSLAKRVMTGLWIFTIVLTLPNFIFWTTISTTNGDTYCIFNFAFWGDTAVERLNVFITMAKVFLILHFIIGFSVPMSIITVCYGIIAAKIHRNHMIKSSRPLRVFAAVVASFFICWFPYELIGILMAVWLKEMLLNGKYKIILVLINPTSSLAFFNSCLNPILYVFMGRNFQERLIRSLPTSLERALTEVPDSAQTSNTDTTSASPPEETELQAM
Protocol: (§1) The ALX receptor and FPRL2 agonistic activities of the compounds of formula (I) are determined in accordance with the following experimental method.
(§2) Intracellular Calcium Measurements:
Cells expressing recombinant human FPRL2 and the G-protein Gα16 (HEK293-hFPRL2-Gα16) were grown to 80% confluency in Growing Medium (GM). […] Stock solutions of test compounds were made up at a concentration of 10 mM in DMSO, and serially diluted in AB to concentrations required for activation dose response curves. Gly14-Humanin (Humanin peptide with replacement of Serine by Glycine at position 14, Phoenix Peptides) was used as a reference agonist. FLIPR384 or FLIPR Tetra instruments (Molecular Devices) were operated according to the manufacturer's standard instructions, adding 4 μl of test compound dissolved at 10 mM in DMSO and diluted prior to the experiment in assay buffer to obtain the desired final concentration. Changes in fluorescence were monitored before and after the addition of test compounds at lex=488 nm and lem=540 nm. Emission peak values above base level after compounds addition were exported after base line subtraction. Values were normalized to high-level control (GLY14-Humanin compound, 100 nM final concentration) after subtraction of the base line value (AB addition).

[2] = target: T2, human ALX receptor (Homo sapiens, UniProt P25090); experiment: Intracellular calcium measurements (FLIPR), agonistic activity in HEK293-hALXR-Gα16 cells; format: cell-based; settings: Fluo-4 calcium FLIPR, normalized to WKYMVm 10 nM
T2 construct: expressed in transfected cells; host or cells: HEK293 (HEK293-hALXR-Gα16)
T2 sequence (P25090 1-351): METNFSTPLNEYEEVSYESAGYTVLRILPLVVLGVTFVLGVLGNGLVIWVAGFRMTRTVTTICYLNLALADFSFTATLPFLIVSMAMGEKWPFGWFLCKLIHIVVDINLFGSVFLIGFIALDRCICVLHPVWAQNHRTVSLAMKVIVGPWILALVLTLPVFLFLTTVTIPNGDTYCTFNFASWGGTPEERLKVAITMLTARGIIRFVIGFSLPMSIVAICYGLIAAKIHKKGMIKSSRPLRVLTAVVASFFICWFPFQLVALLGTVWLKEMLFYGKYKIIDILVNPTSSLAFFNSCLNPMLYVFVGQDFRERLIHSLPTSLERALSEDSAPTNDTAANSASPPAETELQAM
Protocol: as §1, §2
Cells expressing recombinant human ALX receptor and the G-protein Gα16 (HEK293-hALXR-Gα16) were grown to 80% confluency in Growing Medium (GM). Cells were detached from culture dishes with a cell dissociation buffer (Invitrogen, 13151-014), and collected by centrifugation at 1,000 rpm at rt for 5 min in Assay Buffer (AB) (equal parts of Hank's BSS (Gibco, 14065-049) and DMEM without Phenol Red (Gibco, 11880-028)). After 60 min incubation at 37° C. under 5% CO2 in AB supplemented with 1 μM Fluo-4 (AM) (Invitrogen, F14202), and 20 mM HEPES (Gibco, 15630-056), the cells were washed and resuspended in AB. They were then seeded onto 384-well FLIPR assay plates (Greiner, 781091) at 50′000 cells in 70 μl per well and sedimented by centrifugation at 1,000 rpm for 1 min. Stock solutions of test compounds were made up at a concentration of 10 mM in DMSO, and serially diluted in AB to concentrations required for activation dose response curves. WKYMVm (Phoenix Peptides) was used as a reference agonist. FLIPR384 or FLIPR Tetra instruments (Molecular Devices) were operated according to the manufacturer's standard instructions, adding 4 μl of test compound dissolved at 10 mM in DMSO and diluted prior to the experiment in assay buffer to obtain the desired final concentration. Changes in fluorescence were monitored before and after the addition of test compounds at lex=488 nm and lem=540 nm. Emission peak values above base level after compounds addition were exported after base line subtraction. Values were normalized to high-level control (WKYMVm compound, 10 nM final concentration) after subtraction of the base line value (AB addition).

## CC(C)(C)OC(=O)N1CCCC(CCNC(=O)C2C(C(=O)Nc3ccc(Br)cc3)C3C=CC2C32CC2)C1 (mixture of isomers) [Example 99, (5R*)—N^5-(4-Bromophenyl)-(6R*)—N^6-(2-(N-tert-butoxycarbonyl-piperidin-3-yl)-ethyl)-(4S*,7R*)-[4,7-ethenylene-spiro[2.4]heptane]-5,6-dicarboxamide]
[1]
  EC50: 5490 nM
[2]
  EC50: 552 nM

## O=C(NCC1CCCO1)C1C(C(=O)Nc2ccc(Br)cc2)C2CCC1C21CC1 (mixture of isomers) [Example 104, (5R*)—N^5-(4-Bromophenyl)-(6R*)—N^6-(tetrahydrofuran-2-yl-methyl)-(4S*,7R*)-[4,7-ethylene-spiro[2.4]heptane]-5,6-dicarboxamide]
[1]
  EC50: 5250 nM
[2]
  EC50: 1.5 nM

## CC1CCC(NC(=O)C2C(C(=O)NCCCCN3CCCC3)C3C=CC2C32CC2)CC1 (mixture of isomers) [Example 126, (5R*)—N^5-(4-Methyl-cyclohex-1-yl)-(6R*)—N^6-(4-pyrrolidin-1-yl-butyl)-(4S*,7R*)-[4,7-ethenylene-spiro[2.4]heptane]-5,6-dicarboxamide]
[1]
  EC50: 613 nM
[2]
  EC50: 71 nM

## CC(NC(=O)C1C(C(=O)NCCCCN2CCCC2)C2C=CC1C21CC1)c1ccc(Br)cc1 (mixture of isomers) [Example 132, (5R*)—N^5-(1-(4-Bromophenyl)-ethyl)-(6R*)—N^6-(4-pyrrolidin-1-yl-butyl)-(4S*,7R*)-[4,7-ethenylene-spiro[2.4]heptane]-5,6-dicarboxamide]
[1]
  EC50: 79 nM
[2]
  EC50: 898 nM

## CC1(C(=O)NCC2C(C(=O)Nc3ccc(Br)cc3)C3C=CC2C32CC2)CC1(Cl)Cl (mixture of isomers) [Example 165, (5R*)—N^5-(4-Bromo-phenyl)-(6R*)-6-{[(2,2-dichloro-1-methyl-cyclopropylcarbonyl)-amino]-methyl}-(4S*,7R*)-[4,7-ethenylene-spiro[2.4]heptane]-5-carboxamide]
[1]
  EC50: 2600 nM
[2]
  EC50: 87 nM

## O=C(NC1CCNCC1)[C@H]1[C@H](C(=O)Nc2ccc(Br)cc2)[C@@H]2C=C[C@H]1C21CC1 (racemic) [Example 3, (5R*)—N^5-(4-Bromophenyl)-(6R*)—N^6-(piperidin-4-yl)-(4S*,7R*)-[4,7-ethenylene-spiro[2.4]heptane]-5,6-dicarboxamide]
[1]
  EC50: 2000 nM
[2]
  EC50: 0.2 nM

## CC(C)CNC(=O)[C@H]1[C@H](C(=O)Nc2ccc(Br)cc2)[C@@H]2C=C[C@H]1C21CC1 (racemic) [Example 4, (5R*)—N^5-(4-Bromophenyl)-(6R*)—N^6-(3-isobutyl)-(4S*,7R*)-[4,7-ethenylene-spiro[2.4]heptane]-5,6-dicarboxamide]
[1]
  EC50: 5310 nM
[2]
  EC50: 0.24 nM

## NCc1cccc(CNC(=O)[C@H]2[C@H](C(=O)Nc3ccc(Br)cc3)[C@@H]3C=C[C@H]2C32CC2)c1 (racemic) [Example 7, (5R*)—N^5-(4-Bromophenyl)-(6R*)—N^6-((3-aminomethyl-phenyl)-methyl)-(4S*,7R*)-[4,7-ethenylene-spiro[2.4]heptane]-5,6-dicarboxamide]
[1]
  EC50: 413 nM
[2]
  EC50: 0.55 nM

## O=C(NCC1CCNCC1)[C@H]1[C@H](C(=O)Nc2ccc(Br)cc2)[C@@H]2C=C[C@H]1C21CC1 (racemic) [Example 8, (5R*)—N^5-(4-Bromophenyl)-(6R*)—N^6-(4-piperidinyl-methyl)-(4S*,7R*)-[4,7-ethenylene-spiro[2.4]heptane]-5,6-dicarboxamide]
[1]
  EC50: 2600 nM
[2]
  EC50: 0.82 nM

## CC(C)(CN)CNC(=O)[C@H]1[C@H](C(=O)Nc2ccc(Br)cc2)[C@@H]2C=C[C@H]1C21CC1 (racemic) [Example 10, (5R*)—N^5-(4-Bromophenyl)-(6R*)—N^6-(2,2-dimethyl-3-amino-propyl)-(4S*,7R*)-[4,7-ethenylene-spiro[2.4]heptane]-5,6-dicarboxamide]
[1]
  EC50: 726 nM
[2]
  EC50: 0.98 nM

## CCN(CC)CCCCNC(=O)[C@H]1[C@H](C(=O)Nc2ccc(Br)cc2)[C@@H]2C=C[C@H]1C21CC1 (racemic) [Example 11, (5R*)—N^5-(4-Bromophenyl)-(6R*)—N^6-(4-(N,N-diethyl-amino)-butyl)-(4S*,7R*)-[4,7-ethenylene-spiro[2.4]heptane]-5,6-dicarboxamide]
[1]
  EC50: 329 nM
[2]
  EC50: 1 nM

## O=C(NC1CCCC1)[C@H]1[C@H](C(=O)Nc2ccc(Br)cc2)[C@@H]2C=C[C@H]1C21CC1 (racemic) [Example 15, (5R*)—N^5-(4-Bromophenyl)-(6R*)—N^6-(cyclopentyl)-(4S*,7R*)-[4,7-ethenylene-spiro[2.4]heptane]-5,6-dicarboxamide]
[1]
  EC50: 4400 nM
[2]
  EC50: 1.3 nM

## NCCCNC(=O)[C@H]1[C@H](C(=O)Nc2ccc(Br)cc2)[C@@H]2C=C[C@H]1C21CC1 (racemic) [Example 16, (5R*)—N^5-(4-Bromophenyl)-(6R*)—N^6-(3-amino-propyl)-(4S*,7R*)-[4,7-ethenylene-spiro[2.4]heptane]-5,6-dicarboxamide]
[1]
  EC50: 3920 nM
[2]
  EC50: 1.4 nM

## CCOCCCNC(=O)[C@H]1[C@H](C(=O)Nc2ccc(Br)cc2)[C@@H]2C=C[C@H]1C21CC1 (racemic) [Example 17, (5R*)—N^5-(4-Bromophenyl)-(6R*)—N^6-(3-ethoxy-propyl)-(4S*,7R*)-[4,7-ethenylene-spiro[2.4]heptane]-5,6-dicarboxamide]
[1]
  EC50: 2010 nM
[2]
  EC50: 1.8 nM

## O=C(NCC(F)(F)F)[C@H]1[C@H](C(=O)Nc2ccc(Br)cc2)[C@@H]2C=C[C@H]1C21CC1 (racemic) [Example 19, (5R*)—N^5-(4-Bromophenyl)-(6R*)—N^6-(2,2,2-trifluoro-ethyl)-(4S*,7R*)-[4,7-ethenylene-spiro[2.4]heptane]-5,6-dicarboxamide]
[1]
  EC50: 2480 nM
[2]
  EC50: 2.4 nM

## O=C(NCCF)[C@H]1[C@H](C(=O)Nc2ccc(Br)cc2)[C@@H]2C=C[C@H]1C21CC1 (racemic) [Example 20, (5R*)—N^5-(4-Bromophenyl)-(6R*)—N^6-(2-fluoro-ethyl)-(4S*,7R*)-[4,7-ethenylene-spiro[2.4]heptane]-5,6-dicarboxamide]
[1]
  EC50: 2860 nM
[2]
  EC50: 2.7 nM

## CNCCNC(=O)[C@H]1[C@H](C(=O)Nc2ccc(Br)cc2)[C@@H]2C=C[C@H]1C21CC1 (racemic) [Example 21, (5R*)—N^5-(4-Bromophenyl)-(6R*)—N^6-(2-(N-methyl-amino)-ethyl)-(4S*,7R*)-[4,7-ethenylene-spiro[2.4]heptane]-5,6-dicarboxamide]
[1]
  EC50: 1690 nM
[2]
  EC50: 2.8 nM

## O=C(N[C@H]1CC[C@H](O)CC1)[C@H]1[C@H](C(=O)Nc2ccc(Br)cc2)[C@@H]2C=C[C@H]1C21CC1 (racemic) [Example 23, (5R*)—N^5-(4-Bromophenyl)-(6R*)—N^6-(4-hydroxy-cyclohexyl)-(4S*,7R*)-[4,7-ethenylene-spiro[2.4]heptane]-5,6-dicarboxamide]
[1]
  EC50: > 25000 nM
[2]
  EC50: 3.3 nM
